From patent USRE38132E1, “Phenylpyrrolidines, phenylimidazolidines,3-phenyl-1,3-oxizolidines and 3-phenyl-1,3-thiazolidines and their use in the treatment of inflammatory disease” (Boehringer Ingelheim Pharmaceuticals, Inc., priority 1997, dated 2003)
Where two headings read alike, the source gives them in different places.

Assays:
[1] = molecular target: T1, interaction of ICAM-1 with the Leukointegrin CD18/CD11a (LFA-1) (Homo sapiens, UniProt P05107+P20701); experiment: Assay to determine inhibition of LFA-1 binding to ICAM-1 (immunopurified LFA-1 on plate-bound sICAM-1, ELISA readout); conditions: values marked e approximated from incomplete dose-response curve
T1 construct: endogenous in cells; sICAM-1: made in house, secreted from transfected CHO DUX cells
Excerpt: Assay to Determine Inhibition of LFA-1 Binding to ICAM-1 Purpose of Assay: This assay protocol is designed to study the direct antagonism, by a test compound, of the interaction of the CAM, ICAM-1 with the Leukointegrin CD18/CD11a (LFA-1). […] After collection and neutralization of fractions from the TS2/4 column, samples are pooled and precleared with Protein G agarose. […] Wells are washed 3 times with Diluting Buffer. The bound LFA-1 is detected by the addition of a polyclonal antibody directed against a peptide corresponding to the CD18 cytoplasmic tail in a 1:100 dilution with Diluting Buffer and 1% BSA and allowed to incubate for 45 min at 37° C. Wells are washed 3 times with Diluting Buffer and the bound polyclonal antibody is detected by the addition of a 1:4000 dilution of horse radish peroxidase conjugated to goat immunoglobulin directed against rabbit immunoglobulin. […] The lack of the addition of LFA-1 to the binding assay is used as a background control for all samples. A dose-response curve is obtained for all test compounds. Results of these tests are reported as Kd's in μM.

[2] = test system: cell bound form of LFA-1 (CD18, CD11a) with ICAM-1, SKW3 cells; experiment: Inhibition of SKW3 cell binding to ICAM-1 (PMA-stimulated); format: cell-based, human; conditions: Homo sapiens, read-out: Assay to Detect SKW3 Cells Binding to ICAM IC50
In short: (§1)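 Compound-treated, PMA-stimulated human T-cell line SKW3 (50 μg/mL PMA final) allowed to adhere for 2 h at 37° C to wells coated with sICAM-1 at 40 μg/mL or fibronectin at 100 μg/mL. After gentle RPMI wash, 50% inhibition concentration or range reported in μM.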

[3] = test system: cell bound fibronectin receptor (VLA4) with fibronectin, SKW3 cells; experiment: Inhibition of SKW3 cell binding to fibronectin (selectivity counter-assay); format: cell-based, human
In short: as §1

[4] = test system: LFA-1 dependent aggregation of JY cells; experiment: JY cell homotypic aggregation assay (PMA-stimulated); format: cell-based, human; conditions: Homo sapiens
In short: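 Homotypic aggregation of EBV-transformed JY cells, stimulated by phorbol myristate acetate ([…]), scored visually over time in compound presence at 2·10^5 cells/well in serum-supplemented RPMI 1640. Result given as μM concentration or range inhibiting binding by 50%.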

[5] = test system: allogeneic cell transplant response, popliteal lymph node; experiment: In vivo allogeneic cell transplant model (popliteal lymph node weight); conditions: Mus musculus, po; mice, per os, dose at which 50% inhibition is observed; read-out: Allogeneic Cell Transplantation Assay ACT ED50
Excerpt: In vivo: Allogeneic Cell Transplant Model Purpose of Assay: The ability of cells to recognize other cells from self or from another genetically different individual (non-self) is an important property in maintaining the integrity of tissue and organ structure. The allogeneic cell transplant response is an important model for studies of transplant rejection and immunocompetence. This T-cell-mediated immune response can be induced in adult mice by the injection of lymphocytes from a histoincompatible mouse strain into the footpad . This response is characterized by T-cell proliferation which is limited to the popliteal lymph node that receives drainage from the injected footpad area. No in vitro system can completely duplicate this in vivo response. Thus, this animal model can be used to assess the ability of a test compound to suppress transplant rejection. Description of Assay Protocol: Experiments are conducted using male or female mice (20-26 grams). Any histoincompatible mouse strains suffice for donor and recipient populations. Typically DBA mice are used as donors and […] mice are used as recipients. A minimum of 1 week stabilization and conditioning period is required before use during which time the animals are maintained in accordance with the Animal Resource Center S.O.P. Each study utilizes 36 recipient mice divided into groups of 6. The tests last approximately four days. Donor mice are sacrificed by CO2 asphyxiation and spleens are removed and made into a cell suspension. The cells (1.0·10^7/metatarsal in 0.05 mL) are injected intra dermal (according to standard protocol) into the dorsal metatarsal skin of recipient mice. Four days later, the animals are sacrificed by CO2 asphyxiation and the popliteal nodes are removed and weighed. Groups of mice receiving putative immunosuppressive agents are dosed subcutaneously, intraperitoneally or orally one hour prior to cell injection and daily thereafter according to standard protocol. Student's T-test was used to determine significant differences between popliteal lymph nodes of groups of untreated mice and those mice treated with putative immunosuppressive agents (see: Kroczek, R. A.; Black, C. D. V.; Barbet, […]. Immunology, 1987, 139, 3597). Data are reported as the dose at which 50% inhibition is observed and the manner in which the compound was administered. In Table 23, the following legends are applicable: ^and=not determined. ^bpercent inhibition at 160 μg/mL. ^cno inhibition observed up to highest dose. Exact quantification not always possible due to intrinsic toxicity of compound (see MTT result). ^[…] inhibition (concentration in μM ). ^eapproximated from incomplete dose-response curve. ^fnot determined; compound is a synthesis intermediate.

[6] = test system: SKW3 cells
Excerpt: MMT Assay to Determine Cytotoxicity
MTT, (3-(4,5-dimethylthiazol-2-yl)-2,5-diphenyl-2H-tetrazolium bromide), is a yellow substrate that is cleaved by cells with active mitochondria to yield a dark blue/purple formazan product. […] The amount of color is proportional to the number of viable cells. This assay system is used to assess the effect of test compounds on cell viability in vitro.
SKW3 cells, which express LFA-1, are used. Cells used in each assay were adjusted to 1.25·10^6 cells/mL and 100 μL of this stock is dispersed into each well of a 96 well, flat bottom microtiter plate. For each condition in a particular experiment, triplicate wells are set up. Serial dilutions of each test compound or vehicle alone are added to each well. Cells are incubated with compound for 4-24 h at 37° C. before cell viability is assessed. Next, 10 μL of filter sterilized MTT is added to each well. The MTT stock is made in phosphate buffered saline at a concentration of 5 mg/mL. Plates are then incubated for 1 h at 37° C., 5% CO2 atmosphere. Periodically, the plates are examined for formazan crystal development.
At the end of the incubation period, formazan crystals are dissolved by the addition of 100 μL of 0.04 N HCl in iso-propyl alcohol to each well. Each well is thoroughly mixed by repeated pipetting with a multichannel pipetter. The plates are allowed to sit at room temperature for 15-20 minutes and are then read with a spectrophotometer. Absorbance is measured at the test wavelength of 570 nm. Data are reported as the concentration range (in μM) wherein 50% of the cells are no longer viable.

T1 sequence (P20701 26-1170): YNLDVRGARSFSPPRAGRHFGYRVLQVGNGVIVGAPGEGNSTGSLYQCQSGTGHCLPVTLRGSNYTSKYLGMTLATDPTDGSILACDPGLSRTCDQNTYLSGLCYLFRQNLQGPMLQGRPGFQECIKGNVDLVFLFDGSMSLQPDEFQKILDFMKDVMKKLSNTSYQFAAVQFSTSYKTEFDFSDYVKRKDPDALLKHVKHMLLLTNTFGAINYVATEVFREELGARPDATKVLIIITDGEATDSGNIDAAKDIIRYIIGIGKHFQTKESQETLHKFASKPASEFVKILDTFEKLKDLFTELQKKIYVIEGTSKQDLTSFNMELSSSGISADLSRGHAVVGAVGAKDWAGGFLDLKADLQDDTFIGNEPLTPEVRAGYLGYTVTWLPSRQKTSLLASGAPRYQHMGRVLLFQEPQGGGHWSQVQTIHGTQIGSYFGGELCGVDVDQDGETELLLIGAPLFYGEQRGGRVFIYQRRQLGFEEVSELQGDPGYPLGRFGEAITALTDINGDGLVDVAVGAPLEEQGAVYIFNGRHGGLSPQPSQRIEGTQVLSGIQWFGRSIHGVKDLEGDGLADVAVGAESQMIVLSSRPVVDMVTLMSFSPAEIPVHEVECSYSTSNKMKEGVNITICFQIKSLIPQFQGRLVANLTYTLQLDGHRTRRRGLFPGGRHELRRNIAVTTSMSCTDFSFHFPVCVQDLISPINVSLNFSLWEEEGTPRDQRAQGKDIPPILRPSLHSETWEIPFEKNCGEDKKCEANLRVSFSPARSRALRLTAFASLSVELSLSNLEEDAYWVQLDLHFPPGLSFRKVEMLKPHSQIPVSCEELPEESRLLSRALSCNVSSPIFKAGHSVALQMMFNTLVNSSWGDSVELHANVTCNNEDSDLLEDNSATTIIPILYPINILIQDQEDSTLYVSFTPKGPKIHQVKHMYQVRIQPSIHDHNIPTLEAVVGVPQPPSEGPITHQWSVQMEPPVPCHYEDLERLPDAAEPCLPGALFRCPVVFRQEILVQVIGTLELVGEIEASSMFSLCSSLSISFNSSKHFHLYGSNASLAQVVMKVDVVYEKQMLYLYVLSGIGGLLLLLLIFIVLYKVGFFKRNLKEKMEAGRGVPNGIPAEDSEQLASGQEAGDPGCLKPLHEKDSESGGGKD
T1 sequence (P05107 23-769): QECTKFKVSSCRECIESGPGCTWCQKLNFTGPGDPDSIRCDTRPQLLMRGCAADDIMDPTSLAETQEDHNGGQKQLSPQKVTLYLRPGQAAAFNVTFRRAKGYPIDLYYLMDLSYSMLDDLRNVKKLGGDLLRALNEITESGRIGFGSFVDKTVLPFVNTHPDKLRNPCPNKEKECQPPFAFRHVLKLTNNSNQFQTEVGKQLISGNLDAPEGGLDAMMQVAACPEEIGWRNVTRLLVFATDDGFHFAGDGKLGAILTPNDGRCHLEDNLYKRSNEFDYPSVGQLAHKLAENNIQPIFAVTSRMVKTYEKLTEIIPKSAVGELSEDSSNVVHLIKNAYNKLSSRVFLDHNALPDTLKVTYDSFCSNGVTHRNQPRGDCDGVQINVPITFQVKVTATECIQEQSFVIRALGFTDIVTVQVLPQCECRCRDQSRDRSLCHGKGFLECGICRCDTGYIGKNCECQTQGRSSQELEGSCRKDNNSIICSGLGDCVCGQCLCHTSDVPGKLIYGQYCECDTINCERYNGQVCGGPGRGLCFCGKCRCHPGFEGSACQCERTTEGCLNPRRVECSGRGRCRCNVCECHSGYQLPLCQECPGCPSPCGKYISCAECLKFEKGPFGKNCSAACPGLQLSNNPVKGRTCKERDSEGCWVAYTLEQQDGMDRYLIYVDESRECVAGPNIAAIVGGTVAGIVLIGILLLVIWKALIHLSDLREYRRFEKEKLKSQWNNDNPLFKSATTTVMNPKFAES

| Structure (SMILES) | Kd [1] | melting point | further results |
| --- | --- | --- | --- |
| COc1c(F)c(F)c(CC2(C)NC(=O)N(c3cc(Cl)cc(Cl)c3)C2=O)c(F)c1F (stereo not shown) [Example 61] | 2.35 µM | 122 to 123 °C | – |
| CC1(Cc2ccc(C(F)(F)F)c(F)c2)NC(=O)N(c2cc(Cl)cc(Cl)c2)C1=O (stereo not shown) [Example 62] | 0.16 µM | 67 to 69 °C | – |
| CC1(Cc2ccc(Cl)s2)NC(=O)N(c2cc(Cl)cc(Cl)c2)C1=O (stereo not shown) [Example 64] | 1.45 µM | 55 to 56 °C | – |
| CC1(Cc2cccc(SC(F)(F)F)c2)NC(=O)N(c2cc(Cl)cc(Cl)c2)C1=O (stereo not shown) [Example 65] | 1.32 µM | 170 to 171 °C | – |
| CC1(Cc2ccccc2OC(F)(F)F)NC(=O)N(c2cc(Cl)cc(Cl)c2)C1=O (stereo not shown) [Example 66] | 2.85 µM | 153 to 155 °C | – |
| CC1(Cc2ccc(C(F)(F)F)c(F)c2F)NC(=O)N(c2cc(Cl)cc(Cl)c2)C1=O (stereo not shown) [Example 67] | 3.54 µM | 163 to 164 °C | – |
| CC1(Cc2ccc(F)c(C(F)(F)F)c2)NC(=O)N(c2cc(Cl)cc(Cl)c2)C1=O (stereo not shown) [Example 69] | ~70 µM | 168 to 170 °C | – |
| CC(=O)N1C(=O)N(c2cc(Cl)cc(Cl)c2)C(=O)[C@@]1(C)Cc1ccc(-c2cccnc2)cc1 [Example 125] | 0.11 µM | – | IC50 ([2]; SKW3, values marked c: no inhibition observed up to highest dose): 1 to 3 µM; Assay to Detect SKW3 Cells Binding to FIBRONECTIN IC50 ([3]; values marked c: no inhibition observed up to highest dose): No inh^c; IC50 [4]: 0.4 µM; ED50 [5]: ~90 mg/kg; Cellular Toxicity Assay MTT LD50 [6]: >400 µM |
| CN1C(=O)N(c2cc(Cl)cc(Cl)c2)C(=O)[C@@]1(C)Cc1ccc(Br)cc1 [Example 271] | – | – | IC50 ([2]; SKW3): 3 µM; Assay to Detect SKW3 Cells Binding to FIBRONECTIN IC50 ([3]; No inh = no inhibition observed up to highest dose, exact quantification not always possible due to intrinsic toxicity): No inh^c; IC50 [4]: 0.1 µM; ED50 [5]: ~20 mg/kg; Cellular Toxicity Assay MTT LD50 [6]: 250 to 500 µM |
